Laboratory results from PMC4460250, “Systems Pharmacology Dissecting Holistic Medicine for Treatment of Complex Diseases: An Example Using Cardiocerebrovascular Diseases Treated by TCM” (Evidence-based Complementary and Alternative Medicine : eCAM, 2015).

Columns and labels:
[1] = in vivo
[2] = in vivo; cited from earlier work

Row | SMILES | Class(High: HIA value ≥0.7; Low: HIA value < 0.7) [1] | HIA(Human Intestinal Absorption) [2]
1 | CC(C)NC[C@@H](O)c1ccc(O)c(O)c1 [Isoproterenol(S)] | High (key: High: HIA value ≥0.7; Low: HIA value < 0.7) | 0.85
2 | O=[N+]([O-])O[C@H]1CO[C@H]2[C@@H]1OC[C@H]2O [Isosorbide-2-mononitrate] | High (key: High: HIA value ≥0.7; Low: HIA value < 0.7) | 0.9
3 | O=[N+]([O-])O[C@H]1CO[C@H]2[C@@H]1OC[C@H]2O[N+](=O)[O-] [Isosorbide_dinitrate] | High (key: High: HIA value ≥0.7; Low: HIA value < 0.7) | 1
4 | COC(=O)C1=C(C)NC(C)=C(C(=O)OC(C)C)[C@@H]1c1cccc2nonc12 [Isradipine(R)] | High (key: High: HIA value ≥0.7; Low: HIA value < 0.7) | 0.92
5 | COC(=O)C1=C(C)NC(C)=C(C(=O)OC(C)C)[C@H]1c1cccc2nonc12 [Isradipine(S)] | High (key: High: HIA value ≥0.7; Low: HIA value < 0.7) | 0.92
6 | CCC(C)n1ncn(-c2ccc(N3CCN(c4ccc(OCC5COC(Cn6cncn6)(c6ccc(Cl)cc6Cl)O5)cc4)CC3)cc2)c1=O [Itraconazole(R)] | High (key: High: HIA value ≥0.7; Low: HIA value < 0.7) | 0.8
7 | CC[C@H](C)[C@H]1O[C@]2(CC[C@@H]1C)C[C@@H]1C[C@@H](C/C=C(\C)[C@@H](O[C@H]3C[C@H](OC)[C@@H](O[C@H]4C[C@H](OC)[C@@H](O)[C@H](C)O4)[C@H](C)O3)[C@@H](C)/C=C/C=C3\CO[C@@H]4[C@H](O)C(C)=C[C@@H](C(=O)O1)[C@]34O)O2 [Ivermectin] | Low (key: High: HIA value ≥0.7; Low: HIA value < 0.7) | 0.6
8 | NC[C@H]1O[C@H](O[C@H]2[C@H](O)[C@@H](O[C@H]3O[C@H](CO)[C@@H](O)[C@H](N)[C@H]3O)[C@H](N)C[C@@H]2N)[C@H](O)[C@@H](O)[C@@H]1O [Kanamycin] | Low (key: High: HIA value ≥0.7; Low: HIA value < 0.7) | 0.01
9 | CC1=CC(=O)N2CC(=O)N(C)c3ccc(Cl)cc3C2(c2ccccc2)O1 (centres unmarked) [Ketazolam] | High (key: High: HIA value ≥0.7; Low: HIA value < 0.7) | 1
10 | O=C(c1ccccc1)c1ccc2n1CC[C@H]2C(=O)O [Ketorolac(R)] | High (key: High: HIA value ≥0.7; Low: HIA value < 0.7) | 0.95
11 | O=C(c1ccccc1)c1ccc2n1CC[C@@H]2C(=O)O [Ketorolac(S)] | High (key: High: HIA value ≥0.7; Low: HIA value < 0.7) | 0.95
12 | CC[C@@H](C(N)=O)N1CCCC1=O [Levetiracetam(S)] | High (key: High: HIA value ≥0.7; Low: HIA value < 0.7) | 1
13 | CCn1cc(C(=O)O)c(=O)c2cc(F)c(N3CCN[C@H](C)C3)c(F)c21 [Lomefloxacin(R)] | High (key: High: HIA value ≥0.7; Low: HIA value < 0.7) | 0.99
14 | CCn1cc(C(=O)O)c(=O)c2cc(F)c(N3CCN[C@@H](C)C3)c(F)c21 [Lomefloxacin(S)] | High (key: High: HIA value ≥0.7; Low: HIA value < 0.7) | 0.99
15 | N[C@@H](C(=O)N[C@@H]1C(=O)N2C(C(=O)O)=C(Cl)CC[C@H]12)c1ccccc1 [Loracarbef] | High (key: High: HIA value ≥0.7; Low: HIA value < 0.7) | 1
16 | O=C1Nc2ccc(Cl)cc2C(c2ccccc2Cl)=N[C@@H]1O [Lorazepam(R)] | High (key: High: HIA value ≥0.7; Low: HIA value < 0.7) | 0.95
17 | O=C1Nc2ccc(Cl)cc2C(c2ccccc2Cl)=N[C@H]1O [Lorazepam(S)] | High (key: High: HIA value ≥0.7; Low: HIA value < 0.7) | 0.95
18 | CN1C(=O)[C@@H](O)N=C(c2ccccc2Cl)c2cc(Cl)ccc21 [Lormetazepam(R)] | High (key: High: HIA value ≥0.7; Low: HIA value < 0.7) | 1
19 | CN1C(=O)[C@H](O)N=C(c2ccccc2Cl)c2cc(Cl)ccc21 [Lormetazepam(S)] | High (key: High: HIA value ≥0.7; Low: HIA value < 0.7) | 1
20 | CCN(CCCCOC(=O)c1ccc(OC)c(OC)c1)[C@H](C)Cc1ccc(OC)cc1 [Mebeverine(R)] | High (key: High: HIA value ≥0.7; Low: HIA value < 0.7) | 0.9
21 | CCN(CCCCOC(=O)c1ccc(OC)c(OC)c1)[C@@H](C)Cc1ccc(OC)cc1 [Mebeverine(S)] | High (key: High: HIA value ≥0.7; Low: HIA value < 0.7) | 0.9
22 | CCOC(=O)C1(c2ccccc2)CCN(C)CC1 [Meperidine] | High (key: High: HIA value ≥0.7; Low: HIA value < 0.7) | 1
23 | CC[C@]1(c2cccc(O)c2)CCCCN(C)C1 [Meptazinol(R)] | High (key: High: HIA value ≥0.7; Low: HIA value < 0.7) | 1

Row | SMILES | Class(High: HIA value ≥0.7; Low: HIA value < 0.7) [1] | HIA(Human Intestinal Absorption) [2]
24 | CC[C@@]1(c2cccc(O)c2)CCCCN(C)C1 [Meptazinol(S)] | High (key: High: HIA value ≥0.7; Low: HIA value < 0.7) | 1
25 | CC(C)NC[C@H](O)c1cc(O)cc(O)c1 [Metaproterenol(R)] | Low (key: High: HIA value ≥0.7; Low: HIA value < 0.7) | 0.43
26 | CC(C)NC[C@@H](O)c1cc(O)cc(O)c1 [Metaproterenol(S)] | Low (key: High: HIA value ≥0.7; Low: HIA value < 0.7) | 0.43
27 | COc1ccccc1OC[C@@H](O)COC(N)=O [Methocarbamol(R)] | High (key: High: HIA value ≥0.7; Low: HIA value < 0.7) | 1
28 | COc1ccccc1OC[C@H](O)COC(N)=O [Methocarbamol(S)] | High (key: High: HIA value ≥0.7; Low: HIA value < 0.7) | 1
29 | CN(Cc1cnc2nc(N)nc(N)c2n1)c1ccc(C(=O)N[C@@H](CCC(=O)O)C(=O)O)cc1 [Methotrexate(S)] | High (key: High: HIA value ≥0.7; Low: HIA value < 0.7) | 1
30 | COc1ccc(C[C@@H](C)N)cc1 [Methoxyamphetamine(R)] | High (key: High: HIA value ≥0.7; Low: HIA value < 0.7) | 0.8
31 | CN1C(=O)C[C@](C)(c2ccccc2)C1=O [Methsuximide(R)] | High (key: High: HIA value ≥0.7; Low: HIA value < 0.7) | 1
32 | CN1C(=O)C[C@@](C)(c2ccccc2)C1=O [Methsuximide(S)] | High (key: High: HIA value ≥0.7; Low: HIA value < 0.7) | 1
33 | COC(=O)C(c1ccccc1)C1CCCCN1 (centres unmarked) [Methylphenidate] | High (key: High: HIA value ≥0.7; Low: HIA value < 0.7) | 0.8
34 | CC[C@@H](CO)NC(=O)[C@@H]1C=C2c3cccc4c3c(cn4C)C[C@H]2N(C)C1 [Methysergide] | High (key: High: HIA value ≥0.7; Low: HIA value < 0.7) | 1
35 | Cc1ccccc1N1C(=O)c2cc(S(N)(=O)=O)c(Cl)cc2N[C@H]1C [Metolazone(R)] | Low (key: High: HIA value ≥0.7; Low: HIA value < 0.7) | 0.64
36 | Cc1ccccc1N1C(=O)c2cc(S(N)(=O)=O)c(Cl)cc2N[C@@H]1C [Metolazone(S)] | Low (key: High: HIA value ≥0.7; Low: HIA value < 0.7) | 0.64
37 | COCCc1ccc(OC[C@H](O)CNC(C)C)cc1 [Metoprolol(R)] | High (key: High: HIA value ≥0.7; Low: HIA value < 0.7) | 0.96
38 | COCCc1ccc(OC[C@@H](O)CNC(C)C)cc1 [Metoprolol(S)] | High (key: High: HIA value ≥0.7; Low: HIA value < 0.7) | 0.96
39 | Cc1cccc(C)c1OC[C@@H](C)N [Mexiletine(R)] | High (key: High: HIA value ≥0.7; Low: HIA value < 0.7) | 0.98
40 | Clc1ccc(CO[C@@H](Cn2ccnc2)c2ccc(Cl)cc2Cl)c(Cl)c1 [Miconazole(R)] | High (key: High: HIA value ≥0.7; Low: HIA value < 0.7) | 0.99
41 | Clc1ccc(CO[C@H](Cn2ccnc2)c2ccc(Cl)cc2Cl)c(Cl)c1 [Miconazole(S)] | High (key: High: HIA value ≥0.7; Low: HIA value < 0.7) | 0.99
42 | Cc1ncc2n1-c1ccc(Cl)cc1C(c1ccccc1F)=NC2 [Midazolam] | High (key: High: HIA value ≥0.7; Low: HIA value < 0.7) | 1
43 | COP(=O)(OC)O[C@@H](c1ccc(Cl)cc1)P(=O)(OC)OC [Mifobate(R)] | High (key: High: HIA value ≥0.7; Low: HIA value < 0.7) | 0.82
44 | COP(=O)(OC)O[C@H](c1ccc(Cl)cc1)P(=O)(OC)OC [Mifobate(S)] | High (key: High: HIA value ≥0.7; Low: HIA value < 0.7) | 0.82
45 | CCCCC(C)(O)C/C=C/[C@H]1[C@H](O)CC(=O)[C@@H]1CCCCCCC(=O)OC (stereo partly drawn) [Misoprostol(R)] | High (key: High: HIA value ≥0.7; Low: HIA value < 0.7) | 0.88
46 | NC(=O)C[S+]([O-])C(c1ccccc1)c1ccccc1 (centres unmarked) [Modafinil] | High (key: High: HIA value ≥0.7; Low: HIA value < 0.7) | 0.8
